The text below walks through data of US20220153732A1, “PROTEIN SECRETION INHIBITORS” (KEZAR LIFE SCIENCES, priority 2019, published 2022).

Format in all cases: cell-based
Assay [1] relates to PD1-ss+10aa/Gaussia Luciferase. Nature of the assay: Dox-Induced PD1-ss-Gluc Assay. The conditions noted are these: 293FRT/TO cells, read-out: 24 hr Dox Inducible PD1ssGluc 293FRT/TO: Mean IC50. A digest of the protocol:
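Stable cell line carrying PD1-ss+10aa/Gaussia luciferase cDNA under T-REx (doxycycline-inducible) control, plated the day before assay. Compound dilutions in DMSO/media containing doxycycline added and incubated at 37° C, 5% CO2. Undefined stereocentres: data refer to stereoisomer mixtures.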

The test system of assay [2] is TNFα-FL/Gaussia Luciferase. Nature of the assay: Dox Induced TNFα-FL-Gluc Assay. Conditions: 293FRT/TO cells, read-out: 24 hr Dox Inducible TNFaFLGluc 293FRT/TO: Mean IC50. In outline:
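A stable T-REx cell line carrying doxycycline-inducible TNFα-FL/Gaussia luciferase was plated the day before assay. Compound dilutions in DMSO/media containing doxycycline were then added and incubated at 37° C, 5% CO2.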

The test system of assay [3] is HER3-ss+4aa/Gaussia Luciferase. The assay is described as follows: Dox-Induced Her3-ss-Gluc Assay. Conditions: 293FRT/TO cells, read-out: 24 hr Dox Inducible Her3(ss + 4)Gluc 293FRT/TO: Mean IC50. In outline: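 Stable T-REx cell line carrying a doxycycline-regulated HER3-ss+4aa/Gaussia luciferase insert, plated the day before assay. Compound dilutions in DMSO/media with doxycycline added, then incubated at 37° C., 5% CO2. Stereoisomer mixtures tested where stereochemistry is not drawn.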

Assay [4] relates to IL-2-FL/Gaussia Luciferase. The assay is described as follows: Dox Induced IL2-FL-Gluc Assay. The conditions noted are these: 293FRT/TO cells, read-out: 24 hr Dox Inducible IL2FLGIuc 293FRT/TO: Mean IC50. A digest of the protocol:
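Stable T-REx cell line expressing doxycycline-inducible IL-2-FL/Gaussia luciferase cDNA, plated the day before assay. Compound dilutions in DMSO/media containing doxycycline added and incubated at 37° C., 5% CO2. Unspecified stereochemistry means data refer to a stereoisomer mixture.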

The subject of assay [5] is human multiple myeloma cell line NCI-H929. Nature of the assay: H929 Cell Viability Assay. Conditions: 48 hr, NCI-H929 cells, Celltiter-Glo, read-out: 48 hr H929 Viability Celltiter-Glo: Mean EC50. The method, then: Plates were incubated at 37° C., 5% CO2 for 48 hours. After 48 hours, Celltiter-Glo® (Promega) was added to each well and luciferase signal was quantified using Tecan Infinite M1000 Pro for cell viability determination.
For chemical structures that include one or more stereoisomers, but are illustrated without indicating stereochemistry, the assay data refers to a mixture of stereoisomers.
In general terms: ATP-based viability assays read luminescence as a measure of living cells.

The subject of assay [6] is human multiple myeloma cell line U266B1. Nature of the assay: U266 Cell Viability Assay. Conditions: U-266, 48 hr, U266B1 cells, Celltiter-Glo, read-out: 48 hr U266 Viability Celltiter-Glo: Mean EC50. A digest of the protocol: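 U266B1 myeloma cells treated with compound dilutions in DMSO/media for 48 h at 37 °C, 5% CO2. Viability read by CellTiter-Glo luminescence. Stereochemically undefined structures were tested as stereoisomer mixtures.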

The mark [7] stands for this setting: 24 hr doxycycline induction, Gaussia luciferase signal.

Molecules are shown by their SMILES. Read-outs that look alike come from different tables or passages of the source.

On to `CC(C)OC(C)(C)c1csc(NC(=O)c2cccn2Cc2ccc([N+](=O)[O-])cc2)n1` [Compound A53, N-(4-(2-isopropoxypropan-2-yl)thiazol-2-yl)-1-(4-nitrobenzyl)-1H-pyrrole-2-carboxamide], for which the IC50 in assay [1] (setting [7]) is 1.38 µM; in assay [2] (setting [7]), 19.1 µM; in assay [3] (setting [7]), 1.92 µM; in assay [4] (setting [7]), 1.2 µM. For the same compound, the figures for the EC50 in assay [5] and in assay [6] were 17.3 µM and over 25 µM, respectively.
Take `O=C(Nc1nc(C2CCN(c3ccccc3)CC2)cs1)c1cccn1Cc1ccncc1` [Compound A282]: the IC50 in assay [1] (setting [7]) is 0.324 µM; in assay [2] (setting [7]), 4.66 µM; in assay [3] (setting [7]), 0.864 µM; in assay [4] (setting [7]) it was 1.51 µM. In addition, the EC50 worked out at 7.08 µM in assay [5] and 12.5 µM in assay [6].
In the case of `O=C(Nc1nc(C(F)(F)F)cs1)c1cccn1Cc1ccncc1` [Compound A19, 1-(pyridin-4-ylmethyl)-N-(4-(trifluoromethyl)thiazol-2-yl)-1H-pyrrole-2-carboxamide], the IC50 in assay [1] (setting [7]) came out at 0.246 µM; in assay [2] (setting [7]), 8.54 µM; in assay [3] (setting [7]), 0.492 µM; in assay [4] (setting [7]), 0.529 µM. The EC50 in assay [5] and in assay [6] was over 25 µM in each case.
Consider `O=C(Nc1nc(C2CCCN(c3ccccc3)C2)cs1)c1cccn1Cc1ccncc1` (stereo not drawn) [Compound A306, N-(4-(1-phenylpiperidin-3-yl)thiazol-2-yl)-1-(pyridin-4-ylmethyl)-1H-pyrrole-2-carboxamide], for which the IC50 in assay [1] (24 hr, doxycycline-induced) worked out at 0.184 µM; in assay [2] (24 hr, doxycycline-induced), 1.79 µM; in assay [3] (24 hr, doxycycline-induced), 0.495 µM; in assay [4] (24 hr, doxycycline-induced) it was 0.489 µM. Also, the EC50 is 11.2 µM in assay [5] and over 25 µM in assay [6].
With `COc1cccc(/C=C/c2csc(NC(=O)c3cccn3Cc3ccncc3)n2)c1` [Compound A159, N-(4-(3-methoxystyryl)thiazol-2-yl)-1-(pyridin-4-ylmethyl)-1H-pyrrole-2-carboxamide], the IC50 in assay [1] (setting [7]) came out at 0.247 µM; in assay [2] (setting [7]), 9.01 µM; in assay [3] (setting [7]), 0.948 µM; in assay [4] (setting [7]), 2.65 µM. The EC50 is 5.71 µM in assay [5] and 16.2 µM in assay [6].
As for `COc1cnc([C@@H]2C[C@H]2c2csc(NC(=O)c3cccn3Cc3ccncc3)n2)c(F)c1` [Compound A335], the IC50 is 0.13 µM in assay [1] (24 hr, doxycycline-induced); 3.01 µM in assay [2] (24 hr, doxycycline-induced); 0.411 µM in assay [3] (24 hr, doxycycline-induced); 0.752 µM in assay [4] (24 hr, doxycycline-induced). The EC50 in assay [5] is 11.4 µM; in assay [6] it was over 25 µM.
In the case of `O=C(Nc1nc(N2CCc3ccccc3C2)cs1)c1cccn1Cc1ccncc1` [Compound A267], the IC50 in assay [1] (setting [7]) is 15.4 µM; in assay [2] (setting [7]) it was over 25 µM; in assay [3] (setting [7]), over 25 µM; in assay [4] (setting [7]) it was over 25 µM. The EC50 in assay [5] and in assay [6] was over 25 µM in each case.
With `CN(C(=O)c1cccn1Cc1ccncc1)c1nccs1` [Compound B13], the IC50 was over 25 µM in assay [1] (24 hr, doxycycline-induced); over 25 µM in assay [2] (24 hr, doxycycline-induced); over 25 µM in assay [3] (24 hr, doxycycline-induced); over 25 µM in assay [4] (24 hr, doxycycline-induced). For the same compound, the EC50 in assay [5] and in assay [6] was over 25 µM each time.
For the compound `CC(C)OC(C)(C)c1csc(NC(=O)c2cccn2Cc2ccncc2)n1` [Compound A16, N-(4-(2-isopropoxypropan-2-yl)thiazol-2-yl)-1-(pyridin-4-ylmethyl)-1H-pyrrole-2-carboxamide], the IC50 in assay [1] (setting [7]) amounted to 0.185 µM; in assay [2] (setting [7]) it was 5.01 µM; in assay [3] (setting [7]), 0.377 µM; in assay [4] (setting [7]) it was 0.266 µM. Further, the EC50 in assay [5] was over 23.9 µM; in assay [6], over 25 µM.
For `O=C(Nc1nc(/C=C/c2cnc3c(c2)OCO3)cs1)c1cccn1Cc1ccncc1` [Compound A274], the IC50 turned out to be 0.363 µM in assay [1] (setting [7]), 22.3 µM in assay [2] (setting [7]), 2.55 µM in assay [3] (setting [7]) and 3.74 µM in assay [4] (setting [7]). Moreover, the results for the EC50 in assay [5] and in assay [6] were 23.9 µM and over 25 µM, respectively.
As for `CC(C)OC(C)(C)c1csc(NC(=O)c2ccc(CO)n2Cc2ccncc2)n1` [Compound A110, 5-(hydroxymethyl)-N-(4-(2-isopropoxypropan-2-yl)thiazol-2-yl)-1-(pyridin-4-ylmethyl)-1H-pyrrole-2-carboxamide], the IC50 in assay [1] (setting [7]), in assay [2] (setting [7]), in assay [3] (setting [7]) and in assay [4] (setting [7]) was over 25 µM throughout. For the same compound, the EC50 in assay [5] and in assay [6] was over 25 µM throughout.
As for `CO[C@H]1CCN(c2ccccc2)[C@H]1c1csc(NC(=O)c2cccn2Cc2ccncc2)n1` [Compound A334], the IC50 in assay [1] (24 hr, doxycycline-induced) worked out at 0.08 µM; in assay [2] (24 hr, doxycycline-induced), 0.775 µM; in assay [3] (24 hr, doxycycline-induced), 0.138 µM; in assay [4] (24 hr, doxycycline-induced), 0.11 µM. In addition, the EC50 in assay [5] was 6.47 µM; in assay [6], 9.05 µM.
On to `CO[C@H]1CC[C@H](/C=C/c2csc(NC(=O)c3cccn3Cc3ccncc3)n2)CC1` [Compound A253, N-(4-(2-((1r,4r)-4-methoxycyclohexyl)vinyl)thiazol-2-yl)-1-(pyridin-4-ylmethyl)-1H-pyrrole-2-carboxamide], for which the IC50 stood at 0.22 µM in assay [1] (setting [7]), 4.2 µM in assay [2] (setting [7]), 0.672 µM in assay [3] (setting [7]) and 1.58 µM in assay [4] (setting [7]). For the same compound, the figures for the EC50 in assay [5] and in assay [6] were 10.8 µM and 15.6 µM, respectively.
As to `Cc1ccc2nc(NC(=O)c3cccn3Cc3ccncc3)sc2c1` [Compound A73], the IC50 was 2.47 µM in assay [1] (setting [7]), over 25 µM in assay [2] (setting [7]), 7.28 µM in assay [3] (setting [7]) and 2.02 µM in assay [4] (setting [7]). In addition, the EC50 in assay [5] and in assay [6] was over 25 µM in each case.
`CC(C)OC(C)(C)c1csc(NC(=O)c2cccn2[C@@H](C)c2ccncc2)n1` [Compound A74, (S)-N-(4-(2-isopropoxypropan-2-yl)thiazol-2-yl)-1-(1-(pyridin-4-yl)ethyl)-1H-pyrrole-2-carboxamide]: the IC50 in assay [1] (setting [7]) was 2.57 µM; in assay [2] (setting [7]), over 25 µM; in assay [3] (setting [7]), 5.39 µM; in assay [4] (setting [7]), 4.22 µM. In addition, the EC50 in assay [5] and in assay [6] was over 25 µM each time.
Consider `COc1cc(Cn2cccc2C(=O)Nc2nc(C(C)(C)OC(C)C)cs2)cc(F)n1` [Compound A70, 1-((2-fluoro-6-methoxypyridin-4-yl)methyl)-N-(4-(2-isopropoxypropan-2-yl)thiazol-2-yl)-1H-pyrrole-2-carboxamide], for which the IC50 in assay [1] (setting [7]) is 2.23 µM; in assay [2] (setting [7]) it was over 25 µM; in assay [3] (setting [7]) it was 9.39 µM; in assay [4] (setting [7]) it was 5.67 µM. Besides, the EC50 in assay [5] and in assay [6] was over 25 µM each time.
On to `Cc1cc(C(=O)Nc2nc(C(C)(C)OC(C)C)cs2)n(Cc2ccncc2)c1` [Compound A48, N-(4-(2-isopropoxypropan-2-yl)thiazol-2-yl)-4-methyl-1-(pyridin-4-ylmethyl)-1H-pyrrole-2-carboxamide], for which the IC50 in assay [1] (setting [7]) is 1.19 µM; in assay [2] (setting [7]), over 25 µM; in assay [3] (setting [7]), 2.69 µM; in assay [4] (setting [7]), 2.22 µM. Besides, the EC50 in assay [5] and in assay [6] was over 25 µM in each case.
With `C=Cc1csc(NC(=O)c2cccn2Cc2ccncc2)n1` [Compound B2], the IC50 in assay [1] (24 hr, doxycycline-induced) was 1.97 µM; in assay [2] (24 hr, doxycycline-induced), over 25 µM; in assay [3] (24 hr, doxycycline-induced), 12.1 µM; in assay [4] (24 hr, doxycycline-induced), 8.42 µM. For the same compound, the EC50 in assay [5] and in assay [6] was over 25 µM in each case.
Turning to `O=C(Nc1nc(/C=C/c2ccccc2)cs1)c1cccn1CCCc1ccncc1` [Compound A33, 1-(3-(pyridin-4-yl)propyl)-N-(4-styrylthiazol-2-yl)-1H-pyrrole-2-carboxamide], the IC50 in assay [1] (setting [7]) was 0.663 µM; in assay [2] (setting [7]), over 25 µM; in assay [3] (setting [7]), 1.62 µM; in assay [4] (setting [7]), 2.47 µM. In addition, the EC50 in assay [5] turned out to be 8.99 µM; in assay [6], 6.89 µM.

As a reminder, the EC50 is the concentration that produces a half-maximal response.
